Measurements as given in PubChem BioAssay AID2060512 (Molecular Pharmacology Branch, DTP, NCI, 2025).
“And” between values parts separate entries of the source, which are not always exact repeats. Identical values can stand only once.

System: 186277-243-T-J2-PDC complex spheroid viability
Assay: Anticancer human tumor 186277-243-T-J2-PDC patient-derived colon adenocarcinoma cell line growth inhibition [GQUAD]
Settings: for viability, T/C: stronger effect = lower value
Source text: DNA G-quadruplex Stabilizer Agents in Combinations in Complex Spheroids
A high-throughput screen of multi-cell type tumor spheroids was designed to identify active combinations of DNA G-quadruplex stabilizer agents and targeted small molecules. Complex spheroids include a stromal component modeled by human endothelial cells (HUVEC) and fibroblasts modeled by human mesenchymal stem cells (MSCs). The concentration ranges selected for each drug and investigational agent were based upon clinically achievable concentrations if the clinical Cmax of the agent was known.
Compounds. The drugs and investigational agents: pidnarulex (CX-5461; NSC782164), APTO-253 (NSC789042), BRACO-19 (NSC847499), peposertib (NSC802822), ceralasertib (NSC780249), elimusertib (NSC800525), camonsertib (NSC841442), AZD-1390 (NSC803789), olaparib (NSC753686), talazoparib (NSC767125), ART-558 (NSC835418), sotorasib (NSC818433), MRTX-1133 (NSC836407), SN-38 (NSC673596), topotecan (NSC609699), etoposide (NSC141540), doxorubicin (NSC123127), gemcitabine (NSC613327), 5-fluorouracil (NSC19893), paclitaxel (NSC125973), vemurafenib (NSC761431), panobinostat (NSC761190), R-306465 (JNJ-16241199; NSC773264), adavosertib (NSC754352), TP-3654 (NSC805149), carboplatin (NSC241240), KSQ-4279 (NSC840948), and staurosporine (NSC755774) were obtained from the National Cancer Institute (NCI) Developmental Therapeutics Program Chemical Repository (34). The FDA-approved anticancer drug set is available from the NCI Developmental Therapeutics Program. […] The stock solutions were prepared in dimethyl sulfoxide (DMSO, Sigma-Aldrich, St. Louis, MO, cat. D2650) at 800-fold the tested concentration and stored at -70 degrees C prior to their use. All drugs and investigational agents were tested over a range starting from a high concentration at or near the clinical Cmax and decreasing in half-log increments. If the clinical Cmax for an agent had not been determined, the highest concentration tested was 10 microM.
2.3 Cell Culture. All cells were maintained in an incubator at 37 degrees C and 5% CO2 with 95% humidity. The PDC lines were cultured according to standard operating procedures established by the NCI PDMR. All PDCs were thawed and cultured in Matrigel-coated flasks prepared with a working solution of 1X Ham's F-12 nutrient mix, without supplementation (Invitrogen, cat. 11765054), 100 U/mL penicillin-streptomycin (Invitrogen, cat. 15140122), and 2.5% Matrigel (Corning Inc., cat. 354248) for the first three passages. The 857933-349-R-J2-PDC line was cultured in 6C/Colon 1B media, which includes advanced DMEM/F-12 (Thermo Fisher Scientific, cat. 12634028), 10 mM HEPES (Thermo Fisher Scientific, cat. 15630080), 1X GlutaMAX supplement (Thermo Fisher Scientific, cat. 35050061), 0.1 mg/mL primocin (InvivoGen, cat. ant-pm-2), 10% defined fetal bovine serum, heat inactivated (HyClone Laboratories Inc., cat. SH30070.03HI), 50% L-WRN conditioned media (ATCC, cat. CRL-3276), 1.25 mM N-Acetyl-L-cysteine (Sigma-Aldrich, cat. A9165), 10 mM nicotinamide (Sigma-Aldrich, cat. N0636), 1X B-27 supplement (Thermo Fisher Scientific, cat. 17504044), 1X N-2 supplement (Thermo Fisher Scientific, cat. 17502048), 10 microM Y-27632 dihydrochloride (Tocris Bioscience, cat. 1254), and 50 ng/mL human EGF recombinant protein (Thermo Fisher Scientific, cat. PHG0311). The 485176-168-R4-J1-PDC line was cultured in Panc media, which includes all 6C/Colon 1B media components plus 100 ng/mL human FGF-10 (Thermo Fisher Scientific, cat. 100-26), 500 nM SB-431542 (Selleckchem, cat. S1067), and gastrin (Tocris, cat. 3006).
[…]
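Also: spheroids exposed to drugs for 7 days.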
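For viability, T/C in this document: 100% = DMSO vehicle control viability.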

## O=c1[nH]cc(F)c(=O)[nH]1
Compound 0.0316 µM
  viability, T/C: 94.6% and 93.4% and 110%
Compound 0.1 µM
  viability, T/C: 94.9% and 95.8% and 93.8%
Compound 0.316 µM
  viability, T/C: 104% and 108% and 112%
Compound 1 µM
  viability, T/C: 97.6% and 114% and 107%
Compound 3.16 µM
  viability, T/C: 62.5% and 75.2% and 60.1%
Compound 10 µM
  viability, T/C: 39.6% and 52.2% and 50.6%
Curve of compound
  IC50: 5.94 µM and > 10 µM

## C#Cc1c(F)ccc2cc(O)cc(-c3ncc4c(N5CC6CCC(C5)N6)nc(OCC56CCCN5CC(F)C6)nc4c3F)c12 (centres undefined)
Compound 0.0316 µM
  viability, T/C: 99.9% and 94.8% and 64%
Compound 0.1 µM
  viability, T/C: 59.1% and 30.1% and 46.2%
Compound 0.316 µM
  viability, T/C: 26% and 13.2% and 19.2%
Compound 1 µM
  viability, T/C: 14.4% and 7.76% and 10.2%
Compound 3.16 µM
  viability, T/C: 17.8% and 7.17% and 7.07%
Compound 10 µM
  viability, T/C: 10.2% and 5.44% and 5.48%
Curve of compound
  IC50: 0.137 µM and 0.0706 µM and 0.0771 µM

## CCCS(=O)(=O)Nc1ccc(F)c(C(=O)c2c[nH]c3ncc(-c4ccc(Cl)cc4)cc23)c1F
Compound 0.0316 µM
  viability, T/C: 111% and 99.7% and 103%
Compound 0.1 µM
  viability, T/C: 114% and 101% and 82.2%
Compound 0.316 µM
  viability, T/C: 91.7% and 97.9% and 81.8%
Compound 1 µM
  viability, T/C: 92.4% and 78.4% and 81.4%
Compound 3.16 µM
  viability, T/C: 94.7% and 87.6% and 78.3%
Compound 10 µM
  viability, T/C: 22.4% and 25.9% and 24.6%
Curve of compound
  IC50: 6.35 µM and 6.16 µM and 5.69 µM

## COc1ccc([C@@H](O)c2cc(-c3ncnc4cc(N5CCOCC5)ccc34)c(F)cc2Cl)nn1
Compound 0.0316 µM
  viability, T/C: 97.6% and 103% (2×)
Compound 0.1 µM
  viability, T/C: 84.1% and 107% and 101%
Compound 0.316 µM
  viability, T/C: 115% and 112% and 97.2%
Compound 1 µM
  viability, T/C: 95.7% and 90.8% and 108%
Compound 3.16 µM
  viability, T/C: 63% and 66.2% and 70%
Compound 10 µM
  viability, T/C: 41.8% and 24.9% and 33.5%
Curve of compound
  IC50: 6.4 µM and 4.88 µM and 5.94 µM

## COc1ncnc(C2CC2)c1-c1ncc2cnn(Cc3ccc(-c4nc(C(F)(F)F)cn4C(C)C)cc3)c2n1
Compound 0.0316 µM
  viability, T/C: 90% and 113% and 103%
Compound 0.1 µM
  viability, T/C: 95.5% and 108% and 94%
Compound 0.316 µM
  viability, T/C: 90.5% and 94.9% and 102%
Compound 1 µM
  viability, T/C: 88.4% and 101% and 105%
Compound 3.16 µM
  viability, T/C: 96% and 96.8% and 92.5%
Compound 10 µM
  viability, T/C: 76.6% and 96.9% and 106%
Curve of compound
  IC50: > 10 µM

## CC(C)n1c(=O)n(C)c2cnc3cc(F)c(-c4ccc(OCCCN5CCCCC5)nc4)cc3c21
Compound 0.0316 µM
  viability, T/C: 99.3% and 98.7% and 80.8%
Compound 0.1 µM
  viability, T/C: 90.1% and 89.8% and 84.8%
Compound 0.316 µM
  viability, T/C: 106% and 104% and 82.1%
Compound 1 µM
  viability, T/C: 96.6% and 119% and 84.2%
Compound 3.16 µM
  viability, T/C: 104% and 106% and 97.2%
Compound 10 µM
  viability, T/C: 89.4% and 101% and 76%
Curve of compound
  IC50: > 10 µM

## CC1COCCN1c1cc(C2(S(C)(=N)=O)CC2)nc(-c2ccnc3[nH]ccc23)n1 (centres undefined) + Cc1cnc(CNC(=O)c2c(=O)c3ccc(N4CCCN(C)CC4)nc3n3c2sc2ccccc23)cn1
Curve of first compound, second compound 0.0316 µM
  IC50: 0.787 µM
Curve of first compound, second compound 0.1 µM
  IC50: 0.579 µM
Curve of first compound, second compound 0.316 µM
  IC50: 0.885 µM
Curve of first compound, second compound 1 µM
  IC50: 0.564 µM
Curve of first compound, second compound 3.16 µM
  IC50: < 0.0316 µM
Curve of first compound, second compound 10 µM
  IC50: 0.0654 µM
Second compound 0.0316 µM, first compound 0.0316 µM
  viability, T/C: 107%
Second compound 0.0316 µM, first compound 0.1 µM
  viability, T/C: 92.4%
Second compound 0.0316 µM, first compound 0.316 µM
  viability, T/C: 89.8%
Second compound 0.0316 µM, first compound 1 µM
  viability, T/C: 39.4%
Second compound 0.0316 µM, first compound 3.16 µM
  viability, T/C: 13.1%
Second compound 0.0316 µM, first compound 10 µM
  viability, T/C: 8.67%
Second compound 0.1 µM, first compound 0.0316 µM
  viability, T/C: 101%
Second compound 0.1 µM, first compound 0.1 µM
  viability, T/C: 73.4%
Second compound 0.1 µM, first compound 0.316 µM
  viability, T/C: 68.2%
Second compound 0.1 µM, first compound 1 µM
  viability, T/C: 39.8%
Second compound 0.1 µM, first compound 3.16 µM
  viability, T/C: 18.4%
Second compound 0.1 µM, first compound 10 µM
  viability, T/C: 9.76%
Second compound 0.316 µM, first compound 0.0316 µM
  viability, T/C: 73.3%
Second compound 0.316 µM, first compound 0.1 µM
  viability, T/C: 83.1%
Second compound 0.316 µM, first compound 0.316 µM
  viability, T/C: 66.7%
Second compound 0.316 µM, first compound 1 µM
  viability, T/C: 47.5%
Second compound 0.316 µM, first compound 3.16 µM
  viability, T/C: 27.2%
Second compound 0.316 µM, first compound 10 µM
  viability, T/C: 17%
Second compound 1 µM, first compound 0.0316 µM
  viability, T/C: 46.2%
Second compound 1 µM, first compound 0.1 µM
  viability, T/C: 64.6%
Second compound 1 µM, first compound 0.316 µM
  viability, T/C: 64.6%
Second compound 1 µM, first compound 1 µM
  viability, T/C: 41.6%
Second compound 1 µM, first compound 3.16 µM
  viability, T/C: 31.6%
Second compound 1 µM, first compound 10 µM
  viability, T/C: 21.3%
Second compound 3.16 µM, first compound 0.0316 µM
  viability, T/C: 41.8%
Second compound 3.16 µM, first compound 0.1 µM
  viability, T/C: 48.6%
Second compound 3.16 µM, first compound 0.316 µM
  viability, T/C: 50.6%
Second compound 3.16 µM, first compound 1 µM
  viability, T/C: 44.5%
Second compound 3.16 µM, first compound 3.16 µM
  viability, T/C: 39.2%
Second compound 3.16 µM, first compound 10 µM
  viability, T/C: 19.4%
Second compound 10 µM, first compound 0.0316 µM
  viability, T/C: 50.6%
Second compound 10 µM, first compound 0.1 µM
  viability, T/C: 52%
Second compound 10 µM, first compound 0.316 µM
  viability, T/C: 43.2%
Second compound 10 µM, first compound 1 µM
  viability, T/C: 37%
Second compound 10 µM, first compound 3.16 µM
  viability, T/C: 31.6%
Second compound 10 µM, first compound 10 µM
  viability, T/C: 22%
